Results reported in patent US7345091B2, “Carotenoid ether analogs or derivatives for the inhibition and amelioration of disease” (Cardax Pharmaceuticals, Inc., priority 2002, dated 2008).
Like-named read-outs stand apart in the source and are kept apart here.

Columns and labels:
[1] = target: human serum albumin (HSA) (Homo sapiens, UniProt P02768)
Description: For spectroscopic sample preparation, HSA was dissolved in pH 7.4 Ringer or 0.1 M pH 7.4 phosphate buffer solutions. Albumin concentration was calculated with the value of E1cm^1%=5.31, using experimentally obtained absorbance data at 279 nm. The molecular weight of HSA was defined as 66500 Da.
CD and UV spectra were recorded on a Jasco J-715 spectropolarimeter at 25±0.2 and 37±0.2° C. in a rectangular cuvette with 1 cm pathlength. Temperature control was provided by a Peltier thermostat equipped with magnetic stirring. All spectra were accumulated three times with a bandwidth of 1.0 nm and a resolution of 0.5 nm at a scan speed of 100 nm/min. Induced CD was defined as the CD of the dAST XVI-HSA mixture minus the CD of HSA alone at the same wavelengths, and is expressed as ellipticity in millidegrees (mdeg).
Ringer buffer, I/P values from 0.007 to 0.10: 2 mL of 1.6×10^−4 M HSA solution was placed in the cuvette with 1 cm optical pathlength and small amounts of the ligand stock solution (c=2.2×10^−4) were added with an automatic pipette in 10 μL aliquots. Ringer buffer, L/P values from 0.82 to 13.13: 2 ml of 2.3×10^−6 M HSA solution was placed in the cuvette with 1 cm optical pathlength and μL volumes of the ligand stock solution (c=3.9×10^−4) were added with an automatic pipette. Phosphate buffer, L/P values from 0.82 to 13.10: 2 mL of 2.2×10^−6 M HSA solution was placed in the cuvette with 1 cm optical pathlength and μL volumes of the ligand stock solution (c=3.6×10^−4) were added with an automatic pipette.
2 mL of 4.2×10^−6 M HSA solution was prepared in a 1 cm rectangular cell in 0.1 M pH 7.4 phosphate buffer. […] Total fluorescence intensity was collected at each wavelength with a Hamamatsu H5784-type photomultiplier detector mounted on a right angle to the light source. […] A control experiment was also performed, in which the fluorescence of HSA during addition of 20, 50 and 100 μL DMSO to the solution was measured.

superoxide anion = experiment: Superoxide anion scavenging by EPR (DEPMPO spin trap) in phorbol ester-stimulated isolated neutrophils; type: cell-based, human; conditions: for Mean (% inhibition) of superoxide anion signal: 0.1 mM; for reduction of superoxide anion signal: aqueous
Description: In an experiment, neutrophils were isolated on a Percoll gradient from whole blood from a human volunteer. The isolated neutrophils were then re-suspended in phosphate-buffered saline, and maximally stimulated with phorbol ester to induce the respiratory burst and production of superoxide anion. To the solution of activated human neutrophils, the disodium salt disuccinate astaxanthin derivative XVI was added at various concentrations, and the superoxide signal [as measured with electron paramagnetic resonance (EPR) spectroscopy] was subsequently measured. […] The disodium salt disuccinate astaxanthin derivative XVI tested at 100 μM scavenged 28% of the total signal. At 3 mM, almost no superoxide signal remained. […] In addition to reducing the superoxide anion signal important in ischemia-reperfusion injury, it is also likely that myocardial salvage can be achieved with the described carotenoid derivative, as superoxide anion plays a major role in tissue injury and death during prolonged myocardial ischemia. In a third experiment, neutrophils were again isolated on a Percoll gradient from whole blood from a second human volunteer. The isolated neutrophils were then re-suspended in phosphate-buffered saline, and maximally stimulated with phorbol ester to induce the respiratory burst and production of superoxide anion. […] Astaxanthin 2E was dissolved in HPLC grade dimethylsulfoxide (DMSO; Sigma-Aldrich, St. Louis, Mo.). The disodium disuccinate derivatives XVI of astaxanthin 2E were tested separately in […] formulations: statistical mixture of stereoisomers (as for astaxanthin, above, a 1:2:1 mixture of all-E; labeled as “mixture” in all tables and figures); 3S,3'S, and 3R,3'R (optical isomers or enantiomers); and meso (mixture of identical 3S,3'R and 3'S,3R; diastereomers of the enantiomeric pair). […] The disuccinate derivatives were first tested at the appropriate final concentrations in pure aqueous solution (deionized water) from stock solutions of 10 mM. Each of the four disuccinate derivatives were then tested from stock solutions prepared in a 1:2 mixture of ethanol (final concentration of EtOH in stock solution 331⁄3%; final concentration in isolated neutrophil assay 0.3%; HPLC grade ethanol, Sigma-Aldrich, St. Louis, Mo.) at 10 mM. […] Metaphore® Pharmaceuticals, Inc., St. Louis, Mo.) were also performed. Human polymorphonuclear leukocytes (PMNs) were isolated from freshly sampled venous blood of a single volunteer by Percoll density gradient centrifugation, which yielded PMNs with a purity of >95%. Each 10 mL of whole blood was mixed with 0.8 mL of 0.1 M EDTA and 25 mL of saline. The diluted blood was layered over 9 mL of Percoll at a specific density of 1.080 g/mL. After centrifugation at 400×g for 20 min at 20° C., the plasma, mononuclear cell, and Percoll layers were removed. Erythrocytes were lysed by addition of 18 mL of ice-cold water for 30 s, followed by 2 mL of 10× PIPES buffer (25 mM PIPES, 110 mM NaCl, and 5 mM KCl, titrated to pH 7.4 with NaOH). Cells were pelleted at 4° C., the supernatant was decanted, and the procedure was repeated. After the second hypotonic lysis, cells were washed twice with PAG buffer (PIPES buffer containing 0.003% human serum albumin and 0.1% glucose). Afterward, PMNs were counted by light microscopy on a hemocytometer. The final pellet was then suspended in PAG-CM buffer (PAG buffer with 1 mM CaCl2 and 1 mM MgCl2). All EPR measurements were performed using a Bruker ER 300 EPR spectrometer operating at X-band with a TM110 cavity. The microwave frequency was measured with a Model 575 microwave counter (EIP Microwave, Inc., San Jose, Calif.). To measure O^ -2 generation from phorbol-ester (PMA)-stimulated PMNs, EPR spin-trapping studies were performed using DEPMPO (Oxis, Portland, Oreg.) at 10 mM. 1×10^6 PMNs were stimulated with PMA (1 ng/mL) and loaded into capillary tubes for EPR measurements. […]

Cx43 protein = Cx43 protein expression by stereoisomer forms (immuno-(Western) blotting, 4 days); type: cell-based, mouse; conditions: 1×10^-5 M in 1:2 ethanol/H2O, four days; vs 1:2 ethanol/H2O alone
Description: (2) Molecular Studies. […] Briefly, mouse embryonic fibroblast C3H10T1/2 cells were cultured in Eagle's basal medium with Earle's salts (Atlanta Biologicals, Atlanta, Ga.), supplemented with 5% fetal calf serum (Atlanta Biologicals, Atlanta, Ga.) and 25 μg/mL gentamicin sulfate (Sigma, St. Louis, Mo.), and incubated at 37° C. in 5% CO2. On the 7th day after seeding in 100 millimeter (mm) dishes, the confluent cells were treated for four days with the disodium salt disuccinate astaxanthin derivatives XVI and then harvested and analyzed for Cx43 protein induction as described. Protein content was measured using the Protein Assay Reagent kit (Pierce Chemical Co., Rockford, Ill.) according to manufacturer's instructions. Cell lysates containing 100 μg of protein were analyzed by Western blotting using the NuPage western blotting kit and apparatus (Invitrogen, Carlsbad, Calif.) and Cx43 protein detected using a rabbit polyclonal antibody (Zymed, San Francisco, Calif.) raised against a synthetic polypeptide corresponding to the C-terminal domain of mouse, human and rat Cx43. Cx43 immunoreactive bands were visualized by chemiluminescence using an anti-rabbit HRP-conjugated secondary antibody (Pierce Chemical Co., Rockford, Ill.). Digital images were obtained with a cooled CCD camera, and quantitative densitometry was then performed (Bio-Rad, Richmond, Calif.).

[2] = Determination of water solubility; type: physicochemical
Description: A total of 30 mg of sample (disodium disuccinate astaxanthin derivative, as the all-trans mixture of stereoisomers 3S,3′S, meso, and 3R,3′R in a 1:2:1 ratio) was added to 2 mL of sterile-filtered ([…] Millipore®) deionized (DI) water in a 15 mL glass centrifuge tube. The tube was wrapped in aluminum foil and the mixture was shaken for 2 hours, then centrifuged at 3500 rpm for 10 minutes. The aqueous solution was filtered through a 0.45 micron PVDF disposable filter device. A 1 mL volume of filtrate was then diluted appropriately with DI water, and the concentration of the solution was measured at 480 nm using a four point calibration curve prepared from fresh sample.

[3] = for behavior as radical quencher compared with non-esterified, free astaxanthin: formation of carotenoid radical cation
Description: FIG. 27 and FIG. 28 depict the results of spectral analysis after flash photolysis of the formation of triplet and carotenoid cation radical states for non-esterified, free astaxanthin 2E and the diacid disuccinate astaxanthin derivative XV were obtained. Formation of the carotenoid cation radical is a measure of the potential biophysical behavior of the novel derivative as an antioxidant. If a derivative retains the antioxidant behavior of non-esterified, free astaxanthin, then all previously documented (i.e. literature precedent) therapeutic applications for astaxanthin can be reasonably assumed for the novel derivative, including at least singlet oxygen quenching, lipid peroxidation chain-breaking, and/or direct radical scavenging.
In this experiment, nitronaftalin (NN) was used as the photosensitizer. After irradiation, the excited sensitizer (NN*) forms a sensitizer triplet (^3NN). When ^3NN encounters a carotenoid, energy and electron transfer reactions with ^3NN take place. The resulting relatively stable ^3car and carotenoid cation radicals (car*^+) are detected by characteristic absorption bands. Non-polar solvents (e.g. hexane) favor the formation of ^3car, and more polar solvents (alcohols, water) favor the formation of the car.^+. The anion radical of the sensitizer (NN.^−) is not typically seen because of a low absorption coefficient.
The ^3car decays rather quickly. After 15 μs, half of the ^3car has disappeared, and after 50 μs, no ^3car is left.
The spectrum of asta 2E is nearly identical to that of astaCOOH XV. After 50 μs, the ^3car has disappeared. During this time frame, the car.^+ is stable. Negative and positive peaks in the absorption spectra for astaCOOH XV and asta 2E are superimposable.

human serum albumin (HSA), sequence (P02768 25-609): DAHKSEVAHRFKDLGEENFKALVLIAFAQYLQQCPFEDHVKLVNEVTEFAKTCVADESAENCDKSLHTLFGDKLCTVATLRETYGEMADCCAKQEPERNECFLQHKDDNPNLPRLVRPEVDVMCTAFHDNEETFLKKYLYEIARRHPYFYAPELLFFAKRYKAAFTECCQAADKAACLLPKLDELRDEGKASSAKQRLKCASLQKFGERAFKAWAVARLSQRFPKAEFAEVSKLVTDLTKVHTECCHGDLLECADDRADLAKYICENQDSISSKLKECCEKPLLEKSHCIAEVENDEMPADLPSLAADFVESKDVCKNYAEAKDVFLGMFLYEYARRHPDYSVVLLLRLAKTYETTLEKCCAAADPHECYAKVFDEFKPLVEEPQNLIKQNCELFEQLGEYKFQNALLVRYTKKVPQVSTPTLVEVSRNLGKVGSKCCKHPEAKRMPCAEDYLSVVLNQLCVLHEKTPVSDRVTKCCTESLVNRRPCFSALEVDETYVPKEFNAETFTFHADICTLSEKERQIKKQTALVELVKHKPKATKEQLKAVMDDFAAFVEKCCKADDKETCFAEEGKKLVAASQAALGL

CC1=C(/C=C/C(C)=C/C=C/C(C)=C/C=C/C=C(C)/C=C/C=C(C)/C=C/C2=C(C)C(=O)[C@H](OC(=O)CCC(=O)[O-])CC2(C)C)C(C)(C)C[C@H](OC(=O)CCC(=O)[O-])C1=O.[Na+].[Na+] [Meso, disodium salt disuccinate derivative XVI (dAST) of synthetic meso-astaxanthin (3R,3′S-dihydroxy-β,β-carotene-4,4′-dione)]
quenching of the intrinsic fluorescence of HSA ([1]; 0.1 M pH 7.4 phosphate buffer, 37° C.): able to effectively quench the intrinsic fluorescence of HSA
decrease of baseline fluorescence intensity of HSA ([1]; L/P ratio of 0.7, 0.1 M pH 7.4 phosphate buffer, 37° C.): 50%
mode of binding to HSA ([1]; low ligand/protein molar ratios, pH 7.4 Ringer buffer): monomeric form
Mean (% inhibition) of superoxide anion signal (superoxide anion; Solvent EtOH (1:2 EtOH/water stock, 0.3% final)): 42.5%
Mean (% inhibition) of superoxide anion signal (superoxide anion; Solvent Water): 15.7%
expression of Cx43 protein (Cx43 protein): increase expression of Cx43 protein

CC(C=CC=C(C)C=CC1=C(C)C(=O)C(OC(=O)CCC(=O)OCC(O)C2OC(=O)C(O)=C2O)CC1(C)C)=CC=CC=C(C)C=CC=C(C)C=CC1=C(C)C(=O)C(OC(=O)CCC(=O)OCC(O)C2OC(=O)C(O)=C2O)CC1(C)C (stereo not drawn) [XXIII, Succinic acid 4-[18-(4-{3-[2-(3,4-dihydroxy-5-oxo-2,5-dihydrofuran-2-yl)-2-hydroxy-ethoxycarbonyl]-propionyloxy}-2,6,6-trimethyl-2-oxo-cyclohex-1-enyl)-3,7,12,16-tetramethyl-octadeca-1,3,5,7,9,11,13,15,17-nonaenyl]-3,5,5-trimethyl-2-oxo-cyclohex-3-enyl ester 2-(3,4-dihydroxy-5-oxo-2,5-dihydrofuran-2-yl)-2-hydroxy-ethyl ester]
water solubility [2]: highly water soluble
increase in radical scavenging potency over the disodium disuccinate astaxanthin derivative (XVI) (superoxide anion): 50 fold
inhibition of superoxide anion signal (superoxide anion; 60 μM, without a co-solvent): nearly complete inhibition
concentration at which complete suppression of the superoxide anion signal was achieved (superoxide anion; activated human neutrophils, EPR): 60 µM

CC1=C(/C=C/C(C)=C/C=C/C(C)=C/C=C/C=C(C)/C=C/C=C(C)/C=C/C2=C(C)C(=O)C(OC(=O)CCC(=O)O)CC2(C)C)C(C)(C)CC(OC(=O)CCC(=O)O)C1=O (stereo not drawn) [XV, Succinic Acid mono-(4-{18-[4-(3-carboxy-propionyloxy)-2,6,6-trimethyl-3-oxo-cyclohex-1-enyl]-3,7,12,16-tetramethyl-octadeca-1,3,5,7,9,11,13,15,17-nonaenyl}-3,5,5-trimethyl-2-oxo-cyclohex-3-enyl) ester]
stability of the carotenoid cation radical (car.+) [3]: stable within this time frame
time after which half of the 3car (carotenoid triplet) has disappeared ([3]; acetonitrile, sensitizer NN): 15 μs
time after which no 3car (carotenoid triplet) is left ([3]; acetonitrile, sensitizer NN): 50 μs
behavior as radical quencher compared with non-esterified, free astaxanthin ([3]; acetonitrile, sensitizer NN): behaves like asta 2E
behavior as radical quencher compared with non-esterified, free astaxanthin ([3]; acetonitrile, sensitizer NN, listed as astaCOOH): identically to non-esterified, free racemic astaxanthin

CC1=C(/C=C/C(C)=C/C=C/C(C)=C/C=C/C=C(C)/C=C/C=C(C)/C=C/C2=C(C)C(=O)C(OC(=O)C(N)CCCCN)CC2(C)C)C(C)(C)CC(OC(=O)C(N)CCCCN)C1=O.Cl.Cl.Cl (stereo not drawn) [XX, Tetrahydrochloride Salt of the Dilysinate Ester of Astaxanthin]
solubility at 2 h ([2]; deionized water, water, thermodynamic from solid, pure aqueous formulation): > 50 mg/mL
reduction of superoxide anion signal (superoxide anion; 1 μM): approximately 5%
reduction of superoxide anion signal (superoxide anion; 3 mM): 98%
